Experimental data as given in BindingDB's records for patent US10821115 (Amgen, 2020).
Where “and” joins values, the source holds several entries; their conditions need not be identical. Identical values can stand only once.

biological target: T1, Induced myeloid leukemia cell differentiation protein Mcl-1 [171-327] (Homo sapiens, UniProt Q07820); assay: Time-Resolved Fluorescence Resonance Energy Transfer (TR-FRET) Assay
T1 construct: 171-327
T1 sequence (Q07820 171-327): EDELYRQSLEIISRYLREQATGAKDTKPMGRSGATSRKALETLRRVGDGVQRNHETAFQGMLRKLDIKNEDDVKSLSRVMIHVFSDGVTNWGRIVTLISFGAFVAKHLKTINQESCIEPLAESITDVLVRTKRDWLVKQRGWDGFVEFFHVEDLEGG
Procedure: The inhibition of the Mcl-1/Bim interaction was measured using a time-resolved fluorescence resonance energy transfer (TR-FRET) assay. […] A biotinylated peptide derived from human Bim (residues 51-76) was purchased from CPC Scientific (San Jose, Calif.). The TR-FRET assay was conducted in a 384-well white OptiPlate (PerkinElmer, Waltham, Mass.) in a total volume of 40 uL. […] The reaction plates were further incubated overnight and then were read on an Envision multimode reader (PerkinElmer). […] The IC50 values of test compounds were determined from duplicate data by analyzing competition curves using a four-parameter sigmoidal model in GraphPad Prism.

With `C[C@@H]1[C@@H](C)C/C=C/[C@@](O)(c2ccc(F)nc2)[C@@H]2CC[C@H]2CN2C[C@@]3(CCCc4cc(Cl)ccc43)COc3ccc(cc32)C(=O)NS1(=O)=O` (single isomer, unassigned) [US10821115, Example 100420] as the molecule, how does the IC50 read?
Its IC50 is 0.112 nM.

How did the IC50 turn out when `CO[C@@]1(CN2CCN(CCS(C)(=O)=O)CC2)/C=C/C[C@H](C)[C@@H](C)S(=O)(=O)NC(=O)c2ccc3c(c2)N(C[C@@H]2CC[C@H]21)C[C@@]1(CCCc2cc(Cl)ccc21)CO3` [US10821115, Example 81] was run?
The IC50 was 0.14 nM.

With `CO[C@]1(CN2CCN(CC(F)(F)F)CC2)/C=C/C[C@H](C)[C@@H](C)S(=O)(=O)NC(=O)c2ccc3c(c2)N(C[C@@H]2CC[C@H]21)C[C@@]1(CCCc2cc(Cl)ccc21)CO3` [US10821115, Example 93] as the molecule, how does the IC50 read?
Its IC50 is 0.53 nM.

For `CCO[C@]1(CN2CCN(C(COC)COC)CC2)/C=C/C[C@H](C)[C@@H](C)S(=O)(=O)NC(=O)c2ccc3c(c2)N(C[C@@H]2CC[C@H]21)C[C@@]1(CCCc2cc(Cl)ccc21)CO3` [US10821115, Example 116], which IC50 is on record?
Its IC50 is 0.244 nM.

For `CO[C@@]1(CN2CCN(C3CCOCC3)CC2)/C=C/C[C@H](C)[C@@H](C)S(=O)(=O)NC(=O)c2ccc3c(c2)N(C[C@@H]2CC[C@H]21)C[C@@]1(CCCc2cc(Cl)ccc21)CO3` [US10821115, Example 262], which IC50 is on record?
Its IC50 is 0.093 nM.

Which IC50 does the source give for `CO[C@@]1(CN2CCC(N3CCOCC3)CC2)/C=C/C[C@H](C)[C@@H](C)S(=O)(=O)NC(=O)c2ccc3c(c2)N(C[C@@H]2CC[C@H]21)C[C@@]1(CCCc2cc(Cl)ccc21)CO3` [US10821115, Example 263] here?
Its IC50 is 0.147 nM.

With `CO[C@@]1(CN2CCN([C@H]3CCOC(=O)C3)CC2)/C=C/C[C@H](C)[C@@H](C)S(=O)(=O)NC(=O)c2ccc3c(c2)N(C[C@@H]2CC[C@H]21)C[C@@]1(CCCc2cc(Cl)ccc21)CO3` [US10821115, Example 271] as the molecule, how does the IC50 read?
Its IC50 is 0.031 nM.

`CO[C@@]1(CN2CCN([C@H](CCO)CC(=O)O)CC2)/C=C/C[C@H](C)[C@@H](C)S(=O)(=O)NC(=O)c2ccc3c(c2)N(C[C@@H]2CC[C@H]21)C[C@@]1(CCCc2cc(Cl)ccc21)CO3` [US10821115, Example 278] was tested. Which IC50 did it give?
Its IC50 is 0.039 nM.

Which IC50 does the source give for `COCC(COC)N1CCN(C[C@]2(OC)/C=C/C[C@H](C)[C@@H](C)S(=O)(=O)NC(=O)c3ccc4c(c3)N(C[C@@H]3CC[C@H]32)C[C@@]2(CCCc3cc(Cl)ccc32)CO4)CC1` [US10821115, Example 287] here?
The IC50 was 0.137 nM.

How did the IC50 turn out when `COCCN(CCOC)C1CCN(C[C@]2(OC)/C=C/C[C@H](C)[C@@H](C)S(=O)(=O)NC(=O)c3ccc4c(c3)N(C[C@@H]3CC[C@H]32)C[C@@]2(CCCc3cc(Cl)ccc32)CO4)CC1` [US10821115, Example 308] was run?
Its IC50 is 0.111 nM.

For `CO[C@@]1(CN2CCN(CC(CO)CO)CC2)/C=C/C[C@H](C)[C@@H](C)S(=O)(=O)NC(=O)c2ccc3c(c2)N(C[C@@H]2CC[C@H]21)C[C@@]1(CCCc2cc(Cl)ccc21)CO3` [US10821115, Example 310], which IC50 is on record?
Its IC50 is 0.117 nM.

Which IC50 does the source give for `CCO[C@@]1(CN2CCN(C3(C)COC3)CC2)/C=C/C[C@H](C)[C@@H](C)S(=O)(=O)NC(=O)c2ccc3c(c2)N(C[C@@H]2CC[C@H]21)C[C@@]1(CCCc2cc(Cl)ccc21)CO3` [US10821115, Example 311] here?
Its IC50 is 0.324 nM.

For `CCO[C@@]1(CN2CCC(N(CCOC)CCOC)CC2)/C=C/C[C@H](C)[C@@H](C)S(=O)(=O)NC(=O)c2ccc3c(c2)N(C[C@@H]2CC[C@H]21)C[C@@]1(CCCc2cc(Cl)ccc21)CO3` [US10821115, Example 312], which IC50 is on record?
Its IC50 is 0.576 nM.

How did the IC50 turn out when `CO[C@]1(CN2CCN(C3(C)COC3)CC2)/C=C/C[C@H](C)[C@@H](C)S(=O)(=O)NC(=O)c2ccc3c(c2)N(C[C@@H]2CC[C@H]21)C[C@@]1(CCCc2cc(Cl)ccc21)CO3` [US10821115, Example 319] was run?
The IC50 was 0.081 nM.

`CO[C@@]1(CC(=O)N(C)C)/C=C/C[C@H](C)[C@@H](C)S(=O)(=O)NC(=O)c2ccc3c(c2)N(C[C@@H]2CC[C@H]21)C[C@@]1(CCCc2cc(Cl)ccc21)CO3` [US10821115, Example 100135] was tested. Which IC50 did it give?
Its IC50 is 0.173 nM.

Which IC50 does the source give for `CO[C@]1(c2cccnc2F)/C=C/C[C@H](C)[C@@H](C)S(=O)(=O)NC(=O)c2ccc3c(c2)N(C[C@@H]2CC[C@H]21)C[C@@]1(CCCc2cc(Cl)ccc21)CO3` [US10821115, Example 100324] here?
The IC50 was 0.244 nM and 0.182 nM.

For `CO[C@]1(c2cccc(F)n2)/C=C/C[C@H](C)[C@@H](C)S(=O)(=O)NC(=O)c2ccc3c(c2)N(C[C@@H]2CC[C@H]21)C[C@@]1(CCCc2cc(Cl)ccc21)CO3` [US10821115, Example 100339], which IC50 is on record?
Its IC50 is 0.779 nM.

How did the IC50 turn out when `CCN(CC)C(=O)C[C@]1(OC)/C=C/C[C@H](C)[C@@H](C)S(=O)(=O)NC(=O)c2ccc3c(c2)N(C[C@@H]2CC[C@H]21)C[C@@]1(CCCc2cc(Cl)ccc21)CO3` [US10821115, Example 100347] was run?
Its IC50 is 0.689 nM.

For `CO[C@@]1(c2cccnn2)/C=C/C[C@H](C)[C@@H](C)S(=O)(=O)N(C)C(=O)c2ccc3c(c2)N(C[C@@H]2CC[C@H]21)C[C@@]1(CCCc2cc(Cl)ccc21)CO3` [US10821115, Example 100350], which IC50 is on record?
Its IC50 is 0.489 nM.

Which IC50 does the source give for `CO[C@@]1(CC(=O)N(C)C2CC2)/C=C/C[C@H](C)[C@@H](C)S(=O)(=O)NC(=O)c2ccc3c(c2)N(C[C@@H]2CC[C@H]21)C[C@@]1(CCCc2cc(Cl)ccc21)CO3` [US10821115, Example 100374] here?
The IC50 was 0.289 nM.

For `C[C@@H]1[C@@H](C)C/C=C/[C@](O)(C#CCCc2ccccn2)[C@@H]2CC[C@H]2CN2C[C@@]3(CCCc4cc(Cl)ccc43)COc3ccc(cc32)C(=O)NS1(=O)=O` [US10821115, Example 100455], which IC50 is on record?
The IC50 was 0.087 nM.

With `CO[C@@]1(CC(=O)NCCO)/C=C/C[C@H](C)[C@@H](C)S(=O)(=O)NC(=O)c2ccc3c(c2)N(C[C@@H]2CC[C@H]21)C[C@@]1(CCCc2cc(Cl)ccc21)CO3` [US10821115, Example 100465] as the molecule, how does the IC50 read?
Its IC50 is 0.121 nM.

With `COC(=O)C(C)(C)NC(=O)C[C@]1(OC)/C=C/C[C@H](C)[C@@H](C)S(=O)(=O)NC(=O)c2ccc3c(c2)N(C[C@@H]2CC[C@H]21)C[C@@]1(CCCc2cc(Cl)ccc21)CO3` [US10821115, Example 100544] as the molecule, how does the IC50 read?
Its IC50 is 0.171 nM.

`CO[C@@]1(CC(=O)NC(C)(C)C(=O)O)/C=C/C[C@H](C)[C@@H](C)S(=O)(=O)NC(=O)c2ccc3c(c2)N(C[C@@H]2CC[C@H]21)C[C@@]1(CCCc2cc(Cl)ccc21)CO3` [US10821115, Example 100546] was tested. Which IC50 did it give?
Its IC50 is 0.084 nM.

`COC(=O)CNC(=O)C[C@]1(OC)/C=C/C[C@H](C)[C@@H](C)S(=O)(=O)NC(=O)c2ccc3c(c2)N(C[C@@H]2CC[C@H]21)C[C@@]1(CCCc2cc(Cl)ccc21)CO3` [US10821115, Example 100550] was tested. Which IC50 did it give?
Its IC50 is 0.059 nM.

How did the IC50 turn out when `CO[C@@]1(CC(=O)NCc2ncco2)/C=C/C[C@H](C)[C@@H](C)S(=O)(=O)NC(=O)c2ccc3c(c2)N(C[C@@H]2CC[C@H]21)C[C@@]1(CCCc2cc(Cl)ccc21)CO3` [US10821115, Example 100577] was run?
Its IC50 is 0.045 nM.

Which IC50 does the source give for `COC(=O)[C@H](NC(=O)C[C@]1(OC)/C=C/C[C@H](C)[C@@H](C)S(=O)(=O)NC(=O)c2ccc3c(c2)N(C[C@@H]2CC[C@H]21)C[C@@]1(CCCc2cc(Cl)ccc21)CO3)[C@@H](C)O` [US10821115, Example 100581] here?
Its IC50 is 0.363 nM.

With `CO[C@@]1(CC(N)=O)/C=C/C[C@H](C)[C@@H](C)S(=O)(=O)NC(=O)c2ccc3c(c2)N(C[C@@H]2CC[C@H]21)C[C@@]1(CCCc2cc(Cl)ccc21)CO3` [US10821115, Example 100589] as the molecule, how does the IC50 read?
The IC50 was 1.83 nM.
